Inconclusive results and toxic doses are left out. No stated cut-off is given here; in the data, active means T/C of 150% or more; inactive means T/C below 125%.
Tested on: L1210 leukemia ip in BDF1 mice, survival T/C
Assay: NCI In Vivo Anticancer Drug Screen. Data for tumor model L1210 Leukemia (intraperitoneal) in B6D2F1 (BDF1) mice
Conditions: endpoint: mean survival time, higher = longer survival
Procedure, shortened: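 Mice bearing the transplanted tumor received compound or vehicle. Survival of the treated group was divided by that of the vehicle-treated control group to give the ratio.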

[1] = dose: 100.0 mg/kg/injection, schedule: Q01DX001 (ip), vehicle: saline with Tween-80
[2] = dose: 100.0 mg/kg/injection, schedule: Q01DX009 (ip), vehicle: saline with Tween-80
[3] = dose: 200.0 mg/kg/injection, schedule: Q01DX001 (ip), vehicle: saline with Tween-80
[4] = dose: 200.0 mg/kg/injection, schedule: Q01DX009 (ip), vehicle: saline with Tween-80
[5] = dose: 400.0 mg/kg/injection, schedule: Q01DX001 (ip), vehicle: saline with Tween-80
[6] = dose: 400.0 mg/kg/injection, schedule: Q01DX009 (ip), vehicle: saline with Tween-80
[7] = dose: 100.0 mg/kg/injection, schedule: Q01DX009 (ip), vehicle: Klucel (hydroxypropylcellulose) (HPC)
[8] = dose: 100.0 mg/kg/injection, schedule: Q04DX003 (ip), vehicle: Klucel (hydroxypropylcellulose) (HPC)
[9] = dose: 200.0 mg/kg/injection, schedule: Q01DX009 (ip), vehicle: Klucel (hydroxypropylcellulose) (HPC)
[10] = dose: 200.0 mg/kg/injection, schedule: Q04DX003 (ip), vehicle: Klucel (hydroxypropylcellulose) (HPC)
[11] = dose: 400.0 mg/kg/injection, schedule: Q01DX009 (ip), vehicle: Klucel (hydroxypropylcellulose) (HPC)
[12] = dose: 400.0 mg/kg/injection, schedule: Q04DX003 (ip), vehicle: Klucel (hydroxypropylcellulose) (HPC)
[13] = dose: 50.0 mg/kg/injection, schedule: Q01DX001 (ip), vehicle: carboxymethylcellulose (CMC)
[14] = dose: 100.0 mg/kg/injection, schedule: Q01DX001 (ip), vehicle: carboxymethylcellulose (CMC)
[15] = dose: 200.0 mg/kg/injection, schedule: Q01DX001 (ip), vehicle: carboxymethylcellulose (CMC)
[16] = dose: 400.0 mg/kg/injection, schedule: Q01DX001 (ip), vehicle: carboxymethylcellulose (CMC)
[17] = dose: 100.0 mg/kg/injection, schedule: Q04DX003 (ip), vehicle: saline with Tween-80
[18] = dose: 200.0 mg/kg/injection, schedule: Q04DX003 (ip), vehicle: saline with Tween-80
[19] = dose: 400.0 mg/kg/injection, schedule: Q04DX003 (ip), vehicle: saline with Tween-80
[20] = dose: 100.0 mg/kg/injection, schedule: Q01DX009 (ip), vehicle: saline
[21] = dose: 200.0 mg/kg/injection, schedule: Q01DX009 (ip), vehicle: saline
[22] = dose: 400.0 mg/kg/injection, schedule: Q01DX009 (ip), vehicle: saline
[23] = dose: 25.0 mg/kg/injection, schedule: Q01DX009 (ip), vehicle: saline
[24] = dose: 50.0 mg/kg/injection, schedule: Q01DX009 (ip), vehicle: saline
[25] = dose: 100.0 mg/kg/injection, schedule: Q01DX001 (ip), vehicle: saline
[26] = dose: 200.0 mg/kg/injection, schedule: Q01DX001 (ip), vehicle: saline
[27] = dose: 400.0 mg/kg/injection, schedule: Q01DX001 (ip), vehicle: saline
[28] = dose: 100.0 mg/kg/injection, schedule: Q04DX002 (ip), vehicle: Klucel (hydroxypropylcellulose) (HPC)

Measured: T/C

Clc1ccc(C2=Nc3c(Cl)ncnc3SC2)cc1
inactive: [1] 106 % of control | [2] 94 % of control | [3] 101 % of control | [4] 99 % of control | [5] 98 % of control | [6] 94 % of control

ClC1CC2CCC1(Cl)C2 (stereo not drawn)
inactive: [7] 97 % of control | [8] 96 % of control | [9] 92 % of control | [10] 100 % of control | [11] 93 % of control | [12] 96 % of control

NC(=O)c1ccccc1NC(=O)Nc1ccccc1
inactive: [7] 98 % of control | [8] 102 % of control | [9] 94 % of control | [10] 96 % of control | [11] 89 % of control | [12] 94 % of control

COc1cc(OC)cc(C(=O)NCCCl)c1
inactive: [13] 101 % of control | [14] 110 % of control | [15] 107 % of control | [16] 107 % of control

CNC1C(O)C2CCC(C2)C1c1ccccc1 (stereo not drawn)
inactive: dose: 75.0 mg/kg/injection, schedule: Q01DX001 (ip), vehicle: Klucel (hydroxypropylcellulose) (HPC) 96 % of control | dose: 150.0 mg/kg/injection, schedule: Q01DX001 (ip), vehicle: Klucel (hydroxypropylcellulose) (HPC) 105 % of control | dose: 300.0 mg/kg/injection, schedule: Q01DX001 (ip), vehicle: Klucel (hydroxypropylcellulose) (HPC) 98 % of control

COc1cc(/C=N\NC(=O)c2ccncc2)ccc1O
inactive: [17] 100 % of control | [18] 97 % of control | [19] 103 % of control

CCCCC(CC)(CCC)CCN (stereo not drawn)
inactive: dose: 5.0 mg/kg/injection, schedule: Q01DX001 (ip), vehicle: carboxymethylcellulose (CMC) 100 % of control | dose: 10.0 mg/kg/injection, schedule: Q01DX001 (ip), vehicle: carboxymethylcellulose (CMC) 110 % of control | dose: 20.0 mg/kg/injection, schedule: Q01DX001 (ip), vehicle: carboxymethylcellulose (CMC) 100 % of control

CC(C)C1CCC(C)C(C(O)(C(F)(F)F)C(F)(F)F)C1=O (stereo not drawn)
inactive: [20] 114 % of control | [21] 97 % of control | [22] 97 % of control

CC(C)NNC(=O)C(C)N (stereo not drawn)
inactive: dose: 12.5 mg/kg/injection, schedule: Q01DX009 (ip), vehicle: saline 87 % of control | [23] 90 % of control | dose: 25.0 mg/kg/injection, schedule: Q04DX003 (ip), vehicle: saline 89 % of control | [24] 92 % of control | dose: 50.0 mg/kg/injection, schedule: Q04DX003 (ip), vehicle: saline 103 % of control | [20] 92 % of control | dose: 100.0 mg/kg/injection, schedule: Q04DX003 (ip), vehicle: saline 89 % of control | [21] 93 % of control | dose: 200.0 mg/kg/injection, schedule: Q04DX003 (ip), vehicle: saline 86 % of control

CCOC(=O)N1CCC2(CC1)NC(=O)c1ccccc1N2
inactive: [2] 98 % of control | [17] 100 % of control | [4] 97 % of control | [18] 102 % of control | [6] 97 % of control | [19] 96 % of control

CC(Cl)[N+](=O)[O-] (stereo not drawn)
inactive: dose: 100.0 mg/kg/injection, schedule: Q04DX002 (ip), vehicle: saline with Tween-80 94 % of control | dose: 200.0 mg/kg/injection, schedule: Q04DX002 (ip), vehicle: saline with Tween-80 94 % of control | dose: 400.0 mg/kg/injection, schedule: Q04DX002 (ip), vehicle: saline with Tween-80 98 % of control

O=S(=O)(O)C(O)c1ccccc1O (stereo not drawn)
inactive: [25] 100 % of control | [26] 103 % of control | [27] 102 % of control

CCOC(=O)NC1CCC1NC(=O)OCC (stereo not drawn)
inactive: [2] 95 % of control | [4] 98 % of control | [6] 91 % of control

CCOC(=O)C1(C(=O)OCC)CCC2Nc3cc4c(cc3C(=O)N21)OCO4 (stereo not drawn)
inactive: dose: 12.5 mg/kg/injection, schedule: Q04DX003 (ip), vehicle: Klucel (hydroxypropylcellulose) (HPC) 99 % of control | dose: 25.0 mg/kg/injection, schedule: Q04DX003 (ip), vehicle: Klucel (hydroxypropylcellulose) (HPC) 100 % of control | dose: 50.0 mg/kg/injection, schedule: Q04DX003 (ip), vehicle: Klucel (hydroxypropylcellulose) (HPC) 96 % of control

COC(=O)C(C)NC(=O)Cc1ccccc1 (stereo not drawn)
inactive: [2] 94 % of control | [17] 98 % of control | [4] 92 % of control | [18] 101 % of control | [6] 92 % of control | [19] 97 % of control

CC(=O)Nc1ccc2c(c1)Cc1c(F)ccc(F)c1-2
inactive: [13] 98 % of control | [14] 91 % of control | [15] 91 % of control | [16] 98 % of control

CC(=O)OCC/C(=C/c1cc2ccccc2c2ccccc12)[N+](=O)[O-]
inactive: [25] 100 % of control | [26] 105 % of control | [27] 113 % of control

O=C(Nc1cccc(F)c1)N(C1CCCCC1)C1CCCCC1
inactive: dose: 6.25 mg/kg/injection, schedule: Q01DX009 (ip), vehicle: gum acacia 96 % of control | dose: 12.5 mg/kg/injection, schedule: Q01DX009 (ip), vehicle: gum acacia 100 % of control | dose: 50.0 mg/kg/injection, schedule: Q01DX009 (ip), vehicle: gum acacia 89 % of control | dose: 400.0 mg/kg/injection, schedule: Q01DX009 (ip), vehicle: gum acacia 91 % of control

NNc1nc(Nc2ccccc2)nc(Nc2ccccc2)n1
inactive: [25] 89 % of control | [26] 95 % of control | [27] 96 % of control

COC(=O)C1=CCN(C)CC1
inactive: [25] 93 % of control | [26] 101 % of control | [27] 93 % of control

CCC1=C/C(=C/c2cc(Cl)ccc2O)C(=O)S1
inactive: [1] 91 % of control | [3] 87 % of control | [5] 94 % of control

Cc1ccc(S(=O)(=O)OC2C(C3CSC(=O)O3)OC3OC(C)(C)OC32)cc1 (stereo not drawn)
inactive: dose: 25.0 mg/kg/injection, schedule: Q04DX002 (ip), vehicle: Klucel (hydroxypropylcellulose) (HPC) 103 % of control | dose: 50.0 mg/kg/injection, schedule: Q04DX002 (ip), vehicle: Klucel (hydroxypropylcellulose) (HPC) 100 % of control | [28] 97 % of control

N#CSCCSC#N
inactive: dose: 10.0 mg/kg/injection, schedule: Q04DX003 (ip), vehicle: Klucel (hydroxypropylcellulose) (HPC) 99 % of control

CP(=O)(Cc1ccccc1)c1ccccc1 (stereo not drawn)
inactive: dose: 75.0 mg/kg/injection, schedule: Q01DX001 (ip), vehicle: saline 101 % of control | dose: 150.0 mg/kg/injection, schedule: Q01DX001 (ip), vehicle: saline 103 % of control | dose: 300.0 mg/kg/injection, schedule: Q01DX001 (ip), vehicle: saline 103 % of control

Fc1ccc2[nH]c3c(c2c1)CP(c1ccccc1)CC3 (stereo not drawn)
inactive: [8] 100 % of control | [10] 96 % of control | [12] 105 % of control

C/C(=C\CN1C(=O)c2ccccc2C1=O)CCC(=O)O
inactive: [23] 109 % of control | [24] 101 % of control | [20] 109 % of control | [21] 111 % of control | [22] 106 % of control

O=C(O)C(Nc1ccc(Oc2ccc(NC(C(=O)O)c3ccccc3)cc2)cc1)c1ccccc1 (stereo not drawn)
inactive: [28] 100 % of control | dose: 200.0 mg/kg/injection, schedule: Q04DX002 (ip), vehicle: Klucel (hydroxypropylcellulose) (HPC) 100 % of control | dose: 400.0 mg/kg/injection, schedule: Q04DX002 (ip), vehicle: Klucel (hydroxypropylcellulose) (HPC) 100 % of control

CCOC(=O)NC1CCC2c3ccccc3C([N+](=O)[O-])(C1)c1ccccc12 (stereo not drawn)
inactive: [17] 106 % of control | [18] 95 % of control | [19] 90 % of control

O=[N+]([O-])c1cc2cnn(CO)c2cc1[N+](=O)[O-]
inactive: [25] 95 % of control | [26] 95 % of control | [27] 100 % of control

CN(C)C(=S)N1CC2C3CCC(O3)C2C1 (stereo not drawn)
inactive: [8] 95 % of control | [10] 104 % of control

— PubChem BioAssay AID248 (DTP/NCI, 2004)
